Our source for the IC50 values is patent US11059827B2, “Compounds and compositions useful for treating disorders related to NTRK” (Blueprint Medicines Corporation, priority 2015, dated 2021).

Assay [1] concerns KM12 Cliff (G595R) cell line. In words: NTRK G595R mutant cellular assay (KM12 Cliff, CellTiter-Glo). Type of assay: cell-based. Conditions: KM12 Cliff (G595R) cells, 72 hr. As for the experimental part: (§1) NTRK Wild Type and G595R Mutant Cellular Assays Protocol
(§2) KM12 wild type colon carcinoma cell line harboring the TPM3-NTRK1 fusion protein was obtained from the National Cancer Institute (NCI). This line has been previously shown to be dependent upon the NTRK activity derived from the NTRK fusion protein for growth and survival. […] Cells were first plated in 384-well plates at 1000 cells/well in complete media (10% FBS and 1% pen/strep) and incubated overnight at 37° C. Cells were then dosed with test articles at varying concentrations using the Bravo liquid handling system. Concentrations ranged from 25 uM down to […] (4-fold dilutions, 10 concentrations total). Each compound was run in duplicate per plate. DMSO and staurosporine (25 uM) were included on each plate as negative and positive controls for growth inhibition. 72 hr after dosing, assay plates were developed using CellTiter-Glo (Promega) and resultant luminescence was read on the Envision plate reader. IC50 determinations were calculated using a 4-parameter curve fitting algorithm
On the technique in general: In ATP-based viability assays light output follows the ATP content of the culture.

Assay [2] concerns KM12 wild type colon carcinoma cell line harboring the TPM3-NTRK1 fusion protein. In words: NTRK wild type cellular assay (KM12, CellTiter-Glo). Format: cell-based. Conditions: KM12 wild type cells, 72 hr. How it is done: as §1, §2

Broadly, the IC50 is the concentration that inhibits the measured activity by half. Higher therefore signals a need for much substance. On to `N#Cc1cnn2cc(F)c(N3C[C@@H](F)C[C@@H]3c3cc(F)cc(C(N)=O)c3)nc12` [Compound 15], for which the IC50 in assay [1] and in assay [2] was 10 to 100 nM throughout.
